Laboratory results published in US9493460B2, “Diimide compounds” (UCL BUSINESS PLC, priority 2013, dated 2016).
Where two headings read alike, the source gives them in different places.

Key:
[1] = system: MiaPaCa2 (pancreatic) cells; test: SRB growth inhibition assay, MiaPaCa2; format: cell-based, human; conditions: SRB assay, 96 hr exposure
Method: (§1) Human cancer cell lines, MCF7 (breast), A549 (lung), Mia-PaCa2, PANC1 and HPAC (pancreatic), RCC4 and 786-0 renal, and the somatic human cell line WI-38 (lung fibroblast) were purchased from ATCC. Cell lines were maintained in appropriate medium supplemented with 10% foetal bovine serum (Invitrogen, UK), 2 mM L-glutamine (Invitrogen, Netherlands), and other components as specified by the suppliers. Cell lines were maintained at 37° C., 5% CO2 and routinely passaged. Drugs were dissolved in DMSO and filtered through 0.22 μm pore-size filter units before addition to cell line appropriate media. Cellular growth inhibition was measured using the sulforhodamine B (SRB) assay in 96 well plates as described previously.^1,2 Fifty percent inhibitory concentrations (IC50) were determined by taking the mean absorbance at 540 nm for each drug concentration expressed as a percentage of the absorbance of untreated control wells.
(§2) The anti-proliferative activity of the group of nine ND derivatives was assessed using the SRB assay following 96 h exposure to 2-fold serial dilutions of each compound (Table 2) in a panel of cancer cell lines together with a normal fibroblast line. […] In contrast the morpholine compounds all show sub-μM anti-proliferative activity in at least some of the cancer cell lines used and the two compounds 3d, 3h with n=3 —(CH2)n— linkers to the morpholine groups, show particularly potent activity in the Mia-PaCa2 and PANC1 pancreatic carcinoma and A549 lung adenocarcinoma cell lines (IC50 values of 10-20 nM).
Dose-response curves were used to guide the choice of compound concentration and time-points for the array experiments (FIG. 2a). […] To explore this response continuum the transcriptional signature of cells exposed for 24 h to 20 nM, 40 nM, 80 nM concentrations of 3d, or solvent alone as control, was analysed as described in Materials and Methods.
(§3) Next a series of structural isomers were tested.

[2] = system: 786-O (renal) cells; test: SRB growth inhibition assay, 96 hr exposure, 786-O; format: cell-based, human; conditions: SRB assay, 96 hr exposure
Method: as §1, §2, §3

[3] = system: A549 (lung) cells; test: SRB growth inhibition assay, 96 hr exposure, A549; format: cell-based, human
Method: as §1, §2, §3

[4] = system: Panc1 (pancreatic) cells; test: SRB growth inhibition assay, 96 hr exposure, Panc1; format: cell-based, human; conditions: 96 hr exposure
Method: as §1, §2, §3

[5] = system: duplex DNA (T-loop); test: FRET melting assay, duplex DNA; format: binding; conditions: for change in melting temperature Tloop 1 uM: 1 uM ligand; for change in melting temperature Tloop 2 uM: 2 uM ligand
Text: (§4) The ability of the naphthalene diimide compounds to stabilize DNA sequences was investigated using a fluorescence resonance energy transfer (FRET) assay modified to be used as a high-throughput screen in a 96-well format. Several quadruplex sequences were studied (the human telomeric G-quadruplex DNA sequence 5′-FAM-d(GGG[TTAGGG]3)-TAMRA-3′ and the duplex sequence 5′-FAM-dTATAGCTATA-HEG-TATAGCTATA-TAMRA-3′ (HEG linker: [(—CH2—CH2—O—)6])), as well as two overlapping sequences from the HSP90 promoter region (HSP90a and HSP90b):
(§5) The labelled oligonucleotides have attached to them the donor fluorophore FAM: 6-carboxyfluorescein and the acceptor fluorophore TAMRA: 6-carboxytetramethylrhodamine. The FRET probe sequences were diluted from stock to the correct concentration (400 nM) in a 60 mM potassium cacodylate buffer (pH 7.4) and then annealed by heating to 85° C. for 10 min, followed by cooling to room temperature in the heating block. The compound was stored as a 10 mM stock solution in DMSO; final solutions (at 2×concentration) were prepared using 10 mM HCl in the initial 1:10 dilution, after which 60 mM potassium cacodylate buffer (pH 7.4) was used in all subsequent steps. The maximum HCl concentration in the reaction volume (at a ligand concentration of 20 μM) is thus 200 μM, well within the range of the buffer used. Relevant controls were also performed to check for interference with the assay. 96-Well plates (MJ Research, Waltham, Mass.) were prepared by aliquoting 50 μl of the annealed DNA into each well, followed by 50 μl of the compound solutions. Measurements were made on a DNA Engine Opticon (MJ Research) with excitation at 450-495 nm and detection at 515-545 nm. Fluorescence readings were taken at intervals of 0.5° C. in the range 30-100° C., with a constant temperature being maintained for 30 s prior to each reading to ensure a stable value. Final analysis of the data was carried out using a script written in the program Origin 7.0 (OriginLab Corp., Northampton, Mass.). The advanced curve-fitting function in Origin 7.0 was used for calculation of ΔTm values. All determinations were performed in triplicate or better. Esds in ΔTm are ±0.1° C.
(§6) The T-loop sequence represents duplex DNA.

[6] = system: WI38 normal human fibroblast cells; test: SRB growth inhibition assay, 96 hr exposure, WI38; format: cell-based
Method: as §1
as §2, with “nM). […]” for “nM).”

[7] = system: RCC4 (renal) cells; test: SRB growth inhibition assay, 96 hr exposure, RCC4; format: cell-based, human
Method: as §1, §2, §3

[8] = system: MCF-7 (breast) cells; test: SRB growth inhibition assay, 96 hr exposure, MCF-7; format: cell-based, human
Method: as §1, §2, §3

[9] = system: HSP90b promoter quadruplex sequence; test: FRET melting assay, Hsp90B quadruplex; format: binding; conditions: for change in melting temperature Hsp90B 1 uM: 1 uM ligand; for change in melting temperature Hsp90B 2 uM: 2 uM ligand
Text: as §4
as §5, with “±0.1° C. […]” for “±0.1° C.”

[10] = system: human telomeric G-quadruplex DNA (F21T); test: FRET melting assay, human telomeric quadruplex; format: binding; conditions: for change in melting temperature F21T 1 uM: 1 uM ligand; for change in melting temperature F21T 2 uM: 2 uM ligand; for selectivity for quadruplex over duplex DNA (in words): compared to the n=3 compounds
Text: as §4, §5
The ability of compounds 3a-h to stabilize a human telomeric quadruplex was assessed by a high-throughput FRET (Fluorescence Resonance Energy Transfer) melting technique. […] None of the furan tetrahydrofuran, pyranose or acyclic ether compounds has any effect on quadruplex or duplex stability.
as §6

[11] = system: HSP90a promoter quadruplex sequence; test: FRET melting assay, Hsp90A quadruplex; format: binding; conditions: for change in melting temperature Hsp90A 1 uM: 1 uM ligand; for change in melting temperature Hsp90A 2 uM: 2 uM ligand
Text: as §4
as §5, with “±0.1° C. […]” for “±0.1° C.”

[12] = Homo sapiens, A549, 96 hr exposure

Row | SMILES | change in melting temperature Tloop 1 uM [5] | change in melting temperature Tloop 2 uM [5] | change in melting temperature Hsp90B 1 uM [9] | change in melting temperature Hsp90B 2 uM [9] | change in melting temperature F21T 1 uM [10] | change in melting temperature F21T 2 uM [10] | change in melting temperature Hsp90A 1 uM [11] | change in melting temperature Hsp90A 2 uM [11] | IC50 ([1]; Homo sapiens, MIA PaCa-2) [nM] | IC50 ([2]; Homo sapiens, 786-0) [nM] | IC50 [3, 12] [nM] | IC50 ([6]; Homo sapiens, WI-38) [nM] | IC50 ([7]; Homo sapiens, RCC4) [nM] | IC50 ([8]; Homo sapiens, MCF7) [nM] | further results
1 | CN1CCN(CCCN2C(=O)c3cc(NCC4CCCO4)c4c5c(cc(NCC6CCCO6)c(c35)C2=O)C(=O)N(CCCN2CCN(C)CC2)C4=O)CC1 (racemic) [SKM038] | 0 | 0 | 13 | 17 | <2 | 15 | 21 | 23 |  |  |  |  |  |  | IC50 [1]: 95 ± 3 nM; IC50 [2]: 390 ± 20 nM; IC50 ([3]; 96 hr exposure): 160 ± 2 nM; IC50 [4]: 1500 ± 170 nM; IC50 [6]: 2300 ± 80 nM; IC50 [7]: 3000 ± 170 nM; IC50 [8]: 560 ± 34 nM
2 | CN1CCN(CCCNc2cc3c4c(c(NCCCN5CCN(C)CC5)cc5c4c2C(=O)N(CCN2CCOCC2)C5=O)C(=O)N(CCN2CCOCC2)C3=O)CC1 [Compound 3f, 4,9-bis((3-(4-methylpiperazin-1-yl)propyl)amino)-2,7-bis(2-morpholinoethyl)benzo[lmn][3,8]phenanthroline-1,3,6,8(2H,7H)-tetraone] |  |  |  |  |  |  |  |  |  |  |  |  |  |  | selectivity for quadruplex over duplex DNA (in words) [10]: superior selectivity for quadruplex over duplex DNA
3 | CN1CCN(CCNc2cc3c4c(c(NCCN5CCN(C)CC5)cc5c4c2C(=O)N(CCN2CCOCC2)C5=O)C(=O)N(CCN2CCOCC2)C3=O)CC1 [Compound 3g, 4,9-bis((2-(4-methylpiperazin-1-yl)ethyl)amino)-2,7-bis(2-morpholinoethyl)benzo[lmn][3,8]phenanthroline-1,3,6,8(2H,7H)-tetraone] |  |  |  |  |  |  |  |  |  |  |  |  |  |  | selectivity for quadruplex over duplex DNA (in words) [10]: superior selectivity for quadruplex over duplex DNA
4 | CN1CCN(CCCNc2cc3c4c(c(NCCCN5CCN(C)CC5)cc5c4c2C(=O)N(CC2CCCO2)C5=O)C(=O)N(CC2CCCO2)C3=O)CC1 (centres unmarked) [MM10] | 0 | 0 | 21 | 28 | 23 | 26 | 27 | 30 | 5650 ± 930 | > 10000 | 5570 ± 870 | > 10000 | > 10000 | > 10000 | 
5 | CN1CCN(CCCNc2cc3c4c(c(NCCCN5CCN(C)CC5)cc5c4c2C(=O)N(CC2CCOCC2)C5=O)C(=O)N(CC2CCOCC2)C3=O)CC1 [MM33] | 0 | 0 | <2 | <2 | <2 | <2 | <2 | <2 | 2500 ± 10 | 1200 ± 30 | 2920 ± 10 | 12650 ± 110 | 8380 ± 500 | 3120 ± 130 | 
6 | COCCCN1C(=O)c2cc(NCCCN3CCN(C)CC3)c3c4c(cc(NCCCN5CCN(C)CC5)c(c24)C1=O)C(=O)N(CCCOC)C3=O [MM43] | 0 | 0 | 24 | 29 | <2 | 22 | 29 | 32 | 2790 ± 90 | 7170 ± 410 | 2540 ± 10 | 3320 ± 500 | 10500 ± 140 | 5620 ± 150 | 
7 | CN1CCN(CCCNc2cc3c4c(c(NCCCN5CCN(C)CC5)cc5c4c2C(=O)N(CCN2CCOCC2)C5=O)C(=O)N(CCN2CCOCC2)C3=O)CC1 [MM45] | 0 | 1 | 29 | 34 | 27 | 31 | 34 | 36 | 40 ± 10 | 630 ± 60 | 1550 ± 20 | 610 ± 20 | 1750 ± 180 | 170 ± 10 | 
8 | CN1CCN(CCNc2cc3c4c(c(NCCN5CCN(C)CC5)cc5c4c2C(=O)N(CCCN2CCOCC2)C5=O)C(=O)N(CCCN2CCOCC2)C3=O)CC1 [MM47] | 8 | 12 | 31 | 34 | 28 | 33 | 32 | 36 | 10 ± 10 |  | 23 ± 6 | 2460 ± 20 | 280 ± 60 | 30 ± 10 | 
